Results on 13 compounds are retold here after ChEMBL document CHEMBL1201862, “PubChem BioAssay data set” (2004).

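These data come from cells grown in 96-well plates and exposed to compound for 48 hours at five concentrations. Here, GI50 denotes the concentration required for 50% inhibition of growth.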 The source made the active and inactive calls. No stated cut-off is given here; in the data, active = GI50 up to about 1.1 µM and inactive = higher. Bounds are passed on as bounds.

Test systems include 786-0; A549; CCRF-CEM; COLO 205; EKVX; MOLT-4; Malme-3M; NCI-H226; NCI-H522; OVCAR-5; SF-268; TK-10; UACC-257; HOP-62; NCI-H460; OVCAR-3; SNB-75.
Holding throughout (assay): NCI-60 cell line screen, 48 h

`COC(=O)C(=O)C(C(=O)C(=O)Nc1cc(C)ccc1C)c1nc2ccc(C(=O)c3ccccc3)cc2nc1O` (configuration not stated): the GI50 in the assay on 786-0 is > 100 µM (inactive); with A549, > 100 µM (inactive); in the assay with CCRF-CEM, 42.2 µM (inactive); in the assay on COLO 205 it was > 100 µM (inactive); with EKVX it was > 100 µM (inactive); in the assay on MOLT-4, 48.9 µM (inactive). For the same compound, the GI50 in the assay on Malme-3M was > 100 µM (inactive); in the assay on NCI-H226, 62.1 µM (inactive); in the assay on NCI-H522 it was 36.3 µM (inactive); with OVCAR-5, 43.1 µM (inactive); with SF-268 it was > 100 µM (inactive); in the assay with TK-10 it was > 100 µM (inactive). In the assay with UACC-257, the GI50 is > 100 µM (inactive).

In the case of `CC(C)N1CCOC(c2ccc(O)c(O)c2)C1` (configuration not stated), the GI50 with 786-0, in the assay on A549, in the assay on CCRF-CEM, with COLO 205, in the assay with EKVX and with HOP-62 was > 100 µM (inactive) each time. Besides, the GI50 with MOLT-4, in the assay on Malme-3M, in the assay on NCI-H460, in the assay with NCI-H522, in the assay on OVCAR-3 and in the assay with OVCAR-5 was > 100 µM (inactive) each time. Moreover, the GI50 with SF-268, in the assay on SNB-75, in the assay on TK-10 and in the assay on UACC-257 was > 100 µM (inactive) in each case.

Consider `O=C1NC(=O)C2C1c1[nH]c3ccccc3c1C1CCCC12` (configuration not stated), for which the GI50 is 5.02 µM (inactive) with 786-0; 0.916 µM (active) in the assay with A549; 1.86 µM (inactive) with CCRF-CEM; 4.23 µM (inactive) in the assay with COLO 205; 6.76 µM (inactive) with EKVX; 2.44 µM (inactive) with MOLT-4. The GI50 in the assay with Malme-3M was 2.52 µM (inactive); in the assay on NCI-H226 it was 3.61 µM (inactive); in the assay with NCI-H460, 4.17 µM (inactive); in the assay on OVCAR-3, 1.83 µM (inactive); with OVCAR-5, > 100 µM (inactive); in the assay on SF-268, 4.02 µM (inactive). Also, the GI50 with SNB-75 is 2.17 µM (inactive); in the assay with TK-10 it was 8.75 µM (inactive).

Take `C[N+](C)(C)CC(=O)N/N=C(\C(=O)Nc1ccc(Cl)cc1)C1C(=O)N(c2ccccc2)N=C1N` (configuration not stated): the GI50 in the assay on 786-0, with A549, with CCRF-CEM, in the assay on COLO 205, in the assay with EKVX and in the assay with HOP-62 was > 100 µM (inactive) throughout. Besides, the GI50 in the assay on MOLT-4, with Malme-3M, with NCI-H460, in the assay on NCI-H522, in the assay on OVCAR-3 and in the assay with OVCAR-5 was > 100 µM (inactive) each time. Besides, the GI50 with SF-268, with SNB-75, in the assay with TK-10 and in the assay on UACC-257 was > 100 µM (inactive) throughout.

Consider `CN(C(=O)C12C3C4C1C1C2C3C41I)C(C)(C)C` (configuration not stated), for which the GI50 is > 100 µM (inactive) with 786-0; > 100 µM (inactive) with A549; > 87.1 µM (inactive) with COLO 205; 64.9 µM (inactive) in the assay with EKVX; > 100 µM (inactive) in the assay with HOP-62; > 95.9 µM (inactive) in the assay with Malme-3M. Also, the GI50 was > 51.5 µM (inactive) with NCI-H226; > 100 µM (inactive) with NCI-H460; 48 µM (inactive) in the assay on NCI-H522; 70.1 µM (inactive) with OVCAR-3; > 100 µM (inactive) in the assay on OVCAR-5; > 100 µM (inactive) with SF-268. Further, the results for the GI50 with SNB-75, in the assay on TK-10 and in the assay with UACC-257 were > 65.6 µM (inactive), > 57.4 µM (inactive) and > 88.5 µM (inactive), respectively.

For `N#CC(C(=O)/C(=N/NC(=O)c1ccccc1O)C(C#N)c1ccccc1)c1ccccc1` (configuration not stated), the GI50 in the assay with 786-0, in the assay with A549, in the assay with COLO 205, with EKVX, with HOP-62 and in the assay on Malme-3M was > 100 µM (inactive) throughout. The GI50 with NCI-H226, in the assay on NCI-H460, with OVCAR-3, in the assay with SF-268, in the assay on SNB-75 and in the assay with TK-10 was > 100 µM (inactive) in each case. Also, in the assay on UACC-257, the GI50 is > 100 µM (inactive).

Take `Cc1nc(N)sc1C(=O)/C=C/c1ccc([N+](=O)[O-])cc1`: the GI50 in the assay with 786-0, in the assay on A549, in the assay on CCRF-CEM, with COLO 205, in the assay with EKVX and in the assay with HOP-62 was > 100 µM (inactive) in each case. Also, the GI50 with MOLT-4, in the assay with Malme-3M, with NCI-H460, in the assay on NCI-H522, in the assay on OVCAR-3 and with OVCAR-5 was > 100 µM (inactive) in each case. Moreover, the GI50 in the assay with SF-268 was > 100 µM (inactive); with SNB-75 it was 64.6 µM (inactive); in the assay with TK-10, > 100 µM (inactive); with UACC-257, > 100 µM (inactive).

As for `CN(C)/C=C/C(=CC=[N+](C)C)/C=C/N(C)C.[O-][Cl+3]([O-])([O-])[O-]`, the GI50 in the assay with 786-0 was > 100 µM (inactive); in the assay with A549, > 100 µM (inactive); with CCRF-CEM it was 60.3 µM (inactive); in the assay on HOP-62 it was > 100 µM (inactive); with MOLT-4 it was 90.4 µM (inactive); in the assay with Malme-3M it was > 100 µM (inactive). Moreover, the GI50 in the assay on NCI-H226, in the assay with NCI-H460, with NCI-H522, with OVCAR-3, with OVCAR-5 and in the assay on SF-268 was > 100 µM (inactive) throughout. Further, the GI50 in the assay on TK-10 and in the assay with UACC-257 was > 100 µM (inactive) throughout.

For the compound `C=C1CC(CC(=O)C(C)CC2CC(=C)C(=O)O2)OC1=O` (configuration not stated), the GI50 is 20.3 µM (inactive) with 786-0; 52 µM (inactive) in the assay with A549; 6.3 µM (inactive) in the assay on CCRF-CEM; 13.6 µM (inactive) in the assay on COLO 205; 52.2 µM (inactive) in the assay with EKVX; > 100 µM (inactive) in the assay with HOP-62. The GI50 in the assay with MOLT-4 was 11.5 µM (inactive); in the assay on Malme-3M, 14.5 µM (inactive); with NCI-H460 it was 32.1 µM (inactive); with OVCAR-3 it was 17.7 µM (inactive); in the assay with OVCAR-5, 65.9 µM (inactive); with SF-268, 22.4 µM (inactive). Besides, the GI50 in the assay with SNB-75 is 61.4 µM (inactive); in the assay on TK-10, 19.1 µM (inactive); in the assay with UACC-257, 16.4 µM (inactive).

As for `CN(C)CC1CCC(CN(C)C)C1=NO` (configuration not stated), the GI50 in the assay with 786-0, with A549, in the assay with CCRF-CEM, with COLO 205, in the assay with EKVX and with HOP-62 was > 100 µM (inactive) throughout. The GI50 in the assay with MOLT-4 is > 100 µM (inactive); in the assay on Malme-3M, > 100 µM (inactive); in the assay with NCI-H460, > 10 µM (inactive); in the assay on NCI-H522, > 100 µM (inactive); in the assay with OVCAR-3, > 100 µM (inactive); in the assay with OVCAR-5, > 100 µM (inactive). Also, the GI50 in the assay with SF-268 was > 100 µM (inactive); in the assay with SNB-75 it was > 10 µM (inactive); with TK-10 it was > 100 µM (inactive); with UACC-257, > 100 µM (inactive).

As for `CC(C)NCCCC(C)Nc1ccnc2ccc3nn(C)nc3c12` (configuration not stated), the GI50 was 44.2 µM (inactive) in the assay on 786-0; 62.1 µM (inactive) with A549; 41.9 µM (inactive) with CCRF-CEM; 28.3 µM (inactive) with COLO 205; > 100 µM (inactive) with EKVX; 52.7 µM (inactive) in the assay on HOP-62. Moreover, the GI50 in the assay with MOLT-4 was 35 µM (inactive); in the assay on Malme-3M it was 63 µM (inactive); in the assay with NCI-H226, 31.8 µM (inactive); in the assay on NCI-H460 it was 38.6 µM (inactive); in the assay with NCI-H522, > 100 µM (inactive); in the assay on OVCAR-5 it was 75.7 µM (inactive). In addition, the GI50 was 96.8 µM (inactive) in the assay with SF-268, > 100 µM (inactive) with SNB-75, > 100 µM (inactive) in the assay with TK-10 and 74.5 µM (inactive) in the assay with UACC-257.

In the case of `O=C(Nc1cc(Cl)cc(Cl)c1)/C(Cc1nc2ccccc2nc1O)=N/NC(=O)c1ccncc1`, the GI50 with 786-0, in the assay with A549, in the assay with CCRF-CEM, with COLO 205, in the assay on EKVX and in the assay on HOP-62 was > 100 µM (inactive) each time. Further, the GI50 with MOLT-4 was > 100 µM (inactive); in the assay with Malme-3M, > 100 µM (inactive); with NCI-H460 it was > 100 µM (inactive); with OVCAR-3, > 100 µM (inactive); in the assay on OVCAR-5, 67 µM (inactive); with TK-10 it was > 100 µM (inactive). Moreover, the GI50 in the assay on UACC-257 is > 100 µM (inactive).

In the case of `CCCCCCCC(=O)OCC1OC(n2cc(F)c(=O)[nH]c2=O)C(NC(=O)OCc2ccccc2)C(O)C1O` (configuration not stated), the GI50 in the assay with 786-0 was > 100 µM (inactive); in the assay with A549, > 100 µM (inactive); in the assay on CCRF-CEM, 26.5 µM (inactive); in the assay on COLO 205, 37.8 µM (inactive); with EKVX, > 100 µM (inactive); in the assay on HOP-62, > 100 µM (inactive). For the same compound, the GI50 in the assay with MOLT-4 is 27.9 µM (inactive); with Malme-3M, > 100 µM (inactive); with NCI-H460, > 100 µM (inactive); in the assay on NCI-H522, 26.2 µM (inactive); in the assay with OVCAR-3, > 100 µM (inactive); with SF-268, 46.9 µM (inactive). Also, the GI50 is 29.3 µM (inactive) in the assay on SNB-75, > 100 µM (inactive) in the assay with TK-10 and > 100 µM (inactive) in the assay on UACC-257.
